Measurements reported in patent US8486374B2, “Hydrophilic, non-aqueous pharmaceutical carriers and compositions and uses” (Foamix Ltd., priority 2004, dated 2013).
Structures can show the parent of a compound that is named as a salt. Where two headings read alike, the source gives them in different places.

Columns and labels:
[1] = anti-inflammatory steroids at typical concentration in topical products (triamcinolone acetonide 0.025%-0.1% medium, 0.5% high); cited from earlier work
[2] = Shakability of the composition; assay type: physicochemical
Source text: ‘Shakability’ means that the composition contains some or sufficient flow to allow the composition to be mixed or remixed on shaking. That is, it has fluid or semi fluid properties. A breakable foam is that is thermally stable, yet breaks under sheer force.
‘Shakability’ means that the composition contains some or sufficient flow to allow the composition to be mixed or remixed on shaking. That is, it has fluid or semi fluid properties. In some very limited cases it may still be possible to have a foamable composition which is flowable but not apparently shakable.

[3] = Foam appearance (color, odor, form); assay type: physicochemical; parameters: key to ODOR: No odor (N.O.); key to COLOR: white (W)
[4] = Chemical stability: amount of active agent in foam by HPLC on storage; assay type: physicochemical
Protocol: The amount of active agent present is analyzed in foam expelled from various pressurized canisters containing foam formulations using HPLC. Analysis is carried out at zero time and at appropriate time intervals thereafter. The canisters are stored in controlled temperature incubators at 5° C., at 25° C., at, 40° C. and at 50° C. At appropriate time intervals canisters are removed and the amount of active agent in the foam sample is measured. […] All samples were stored at 50° C. for 4 weeks, in order to assess their stability. The following table provides the results of this short-term stability study, which indicated high compatibility between the polyol composition and the steroid drugs, which are known to be temperature-sensitive.

candida albicans = assay: Comparative in-vitro antifungal activity (Petri dish spreading); assay type: cell-based
Source text: An exemplary case for the inclusion of an anti-infective agent in a hygroscopic composition is provided herewith. […] Thus, combining an antifungal agent in a hygroscopic composition results in an expansion of the spectrum of infective strains that can benefit form the therapy, and furthermore, in can render an improved effect of such a composition on mixed infections or in infections that are not accurately diagnosed.
A comparative in-vitro study was set to evaluate the effect of Composition A, consisting of 2% terbinafine, 95.3% gr. polyethylene glycol, 0.5% hydroxypropyl cellulose and 2.2% steareth-2, in comparison with Composition B (an oil in water emulsion containing 2% terbinafine) and Composition C a commercial 1% bifonazole cream.
Three fungal strains (microsporum canis, trichophyton mentagrophytes and trichophyton rubrum) and one yeast (candida albicans) were seeded in the center of a Petri dish, and then, were surrounded by a film containing each of the compositions, using a swab, soaked with each of the compositions. The proliferation and spreading of the microorganisms was followed up for 14 day by visual and photographic observations.

[5] = cited from earlier work
[6] = Predicted physical characteristics of the resultant foam after adding an active agent; assay type: physicochemical; details: predicted on adding the active (BMV […] w/w; estradiol hemihydrate about 0.0051% w/w) with modulating agent to the carrier of the example at the place
[7] = active agent in stock of PEG-400 97.5, hydroxypropyl cellulose 0.5, steareth 2 2.0 (first Example 29)
[8] = active agent in stock of propylene glycol 46, glycerin 33, dimethyl isosorbide 15, stearyl alcohol, hydroxypropyl cellulose, laureth-4, GMS/PEG 100 stearate (Example 30)
[9] = active agent in stock of propylene glycol 91, stearyl alcohol 2, Klucel EF 2, laureth-4 2, glyceryl monostearate/PEG 100 stearate 3 (second Example 29)

| SHAKABILITY [2, 7] | SHAKABILITY [2, 9] | COLOR [3, 7] | ODOR [3, 7] | COLOR [3, 9] | ODOR [3, 9] | Structure (SMILES) | Relative Potency [1] | further results |
| --- | --- | --- | --- | --- | --- | --- | --- | --- |
|  |  |  |  |  |  | CCC(=O)O[C@]1(C(=O)COC(C)=O)CC[C@H]2[C@@H]3C[C@H](C)C4=CC(=O)C=C[C@]4(C)[C@H]3[C@@H](O)C[C@@]21C [Methylprednisolone aceponate] | High Potency |  |
|  |  |  |  |  |  | CC1(C)O[C@@H]2C[C@H]3[C@@H]4CCC5=CC(=O)CC[C@]5(C)[C@@]4(F)[C@@H](O)C[C@]3(C)[C@]2(C(=O)CCl)O1 [Halcinonide] | High Potency |  |
|  |  |  |  |  |  | CC(=O)OCC(=O)[C@@]1(O)CC[C@H]2[C@@H]3CCC4=CC(=O)CC[C@]4(C)[C@H]3[C@@H](O)C[C@@]21C [Hydrocortison Acetate] | Low Potency |  |
|  |  |  |  |  |  | CCOC(=O)O[C@]1(C(=O)COC(=O)CC)CC[C@H]2[C@@H]3CCC4=CC(=O)C=C[C@]4(C)[C@H]3[C@@H](O)C[C@@]21C [Prednicarbate] | Medium Potency |  |
|  |  |  |  |  |  | CCC(=O)OCC(=O)[C@@]1(OC(=O)CC)[C@H](C)C[C@H]2[C@H]3[C@H]([C@@H](O)C[C@@]21C)[C@@]1(C)C=CC(=O)C=C1C[C@H]3Cl [Alcometasone dipropionate] | Medium Potency |  |
| Yes | Yes | W | N.O | W | N.O | O=C(OOC(=O)c1ccccc1)c1ccccc1 [Benzoyl peroxide] |  | SHAKABILITY [2, 8]: Yes; COLOR [3, 8]: W; ODOR [3, 8]: N.O |
|  |  |  |  |  |  | C[C@]12CCC(=O)C=C1CC[C@@H]1[C@@H]2[C@@H](O)C[C@@]2(C)[C@H]1CC[C@]2(O)C(=O)CO [Hydrocortisone] | Low Potency |  |
| Yes | Yes | W | N.O | W | N.O | O=C(O)CCCCCCCC(=O)O [Azelaic acid] |  | SHAKABILITY [2, 8]: Yes; COLOR [3, 8]: W; ODOR [3, 8]: N.O |
| Yes | Yes | W | N.O | W | No | CN(C/C=C/C#CC(C)(C)C)Cc1cccc2ccccc12 [Terbinafine HCl] |  |  |
|  |  |  |  |  |  | CCC(=O)OCC(=O)[C@@]1(OC(=O)CC)[C@@H](C)C[C@H]2[C@@H]3CCC4=CC(=O)C=C[C@]4(C)[C@@]3(F)[C@@H](O)C[C@@]21C [Bethamethasone Dipropionate] | High Potency | % Degradation after 4 weeks at 50° C. ([4]; 4 weeks): 0% |
| Yes | Yes | W | N.O | W | N.O | CC(=O)N1CCN(c2ccc(OCC3COC(Cn4ccnc4)(c4ccc(Cl)cc4Cl)O3)cc2)CC1 (stereo not drawn) [Ketoconazole] |  |  |
| Yes | Yes | Light | N.O | O.W | No | CN1C(C(=O)Nc2ccccn2)=C(O)c2ccccc2S1(=O)=O [Piroxicam] |  |  |
|  |  |  |  |  |  | C[C@H]1C[C@H]2[C@@H]3CCC4=CC(=O)C=C[C@]4(C)[C@@]3(F)[C@@H](O)C[C@]2(C)[C@@]1(OC(=O)c1ccccc1)C(=O)CO [Betamethasone-17-benzoate] | High Potency |  |
|  |  |  |  |  |  | CN(C/C=C/C#CC(C)(C)C)Cc1cccc2ccccc12 [terbinafine] |  | inhibition of the spreading of candida albicans (candida albicans; control preparation, same concentration in an emulsion base): not effective; inhibition of the spreading of candida albicans (candida albicans; dissolved in a hygroscopic carrier): effectively inhibited the spreading; solubility ([5]; in common formulation excipients): hard to dissolve |
| Yes | Yes | W | N.O | O.W | No | O=C(O)c1ccccc1O [Salicylic acid] |  |  |
| Yes | Yes | W | N.O | W | N.O | CCCCC(=O)O[C@]1(C(=O)CO)[C@@H](C)C[C@H]2[C@@H]3CCC4=CC(=O)C=C[C@]4(C)[C@@]3(F)[C@@H](O)C[C@@]21C [Betamethasone 17 valerate micronized, Betamethasone 17 valerate] | Medium Potency | SHAKABILITY [2, 8]: Yes; COLOR [3, 8]: W; ODOR [3, 8]: N.O; effect on the physical characteristics of the resultant foam [6]: minimal effect |
|  |  |  |  |  |  | CC1(C)O[C@@H]2C[C@H]3[C@@H]4C[C@H](F)C5=CC(=O)C=C[C@]5(C)[C@@]4(F)[C@@H](O)C[C@]3(C)[C@]2(C(=O)CO)O1 [Fluocinolone Acetonide] | Medium Potency |  |
|  |  |  |  |  |  | C[C@@H]1C[C@H]2[C@@H]3CCC4=CC(=O)C=C[C@]4(C)[C@@]3(Cl)[C@@H](O)C[C@]2(C)[C@@]1(OC(=O)c1ccco1)C(=O)CCl [Mometasone furoate] | Medium Potency |  |
| Yes | Yes | W | N.O | W | N.O | C/C(=C\C(=O)OCCCCCCCCC(=O)O)C[C@@H]1OC[C@H](C[C@@H]2O[C@H]2[C@@H](C)[C@H](C)O)[C@@H](O)[C@H]1O [Mupirocin] |  | solubility ([5]; in mineral oil and other commonly used ointment solvents): practically insoluble |
|  |  |  |  |  |  | CCCC(=O)O[C@]1(C(=O)CCl)[C@H](C)C[C@@H]2[C@@H]3CCC4=CC(=O)C=C[C@]4(C)[C@]3(F)C(=O)C[C@@]21C [Clobetasone-17-butyrate] | Medium Potency |  |
|  |  |  |  |  |  | CCC(=O)O[C@]1(C(=O)CCl)[C@@H](C)C[C@H]2[C@@H]3CCC4=CC(=O)C=C[C@]4(C)[C@@]3(F)[C@@H](O)C[C@@]21C [Clobetasol Propionate] | Highest Potency |  |
|  |  |  |  |  |  | CC(=O)OCC(=O)[C@@]12OC(C)(C)O[C@@H]1C[C@H]1[C@@H]3C[C@H](F)C4=CC(=O)C=C[C@]4(C)[C@@]3(F)[C@@H](O)C[C@@]12C [Flucinonide] | Medium Potency |  |
| Yes | Yes | W | N.O | W | N.O | C=C1/C(=C\C=C2/CCC[C@]3(C)[C@@H]([C@H](C)/C=C/[C@@H](O)C4CC4)CC[C@@H]23)C[C@@H](O)C[C@@H]1O [Calcipotriol hydrate] |  | SHAKABILITY [2, 8]: Yes; COLOR [3, 8]: W; ODOR [3, 8]: N.O |
|  |  |  |  |  |  | CCCC(=O)O[C@]1(C(=O)CO)CC[C@H]2[C@@H]3CCC4=CC(=O)CC[C@]4(C)[C@H]3[C@@H](O)C[C@@]21C [Hydrocortison Butyrate] |  | % Degradation after 4 weeks at 50° C. ([4]; steroid in TECH-PG 032, stored at 50° C. for 4 weeks): 2.6%; % Degradation after 4 weeks at 50° C. ([4]; steroid in TECH-PG 033, stored at 50° C. for 4 weeks): 2.8% |
|  |  |  |  |  |  | CC1(C)O[C@@H]2C[C@H]3[C@@H]4CCC5=CC(=O)C=C[C@]5(C)[C@H]4[C@@H](O)C[C@]3(C)[C@]2(C(=O)CO)O1 [Desonide] | Low Potency |  |
| Yes | Yes | W | N.O | W | N.O | Cc1cc(C2CCCCC2)n(O)c(=O)c1 [Ciclopiroxolamine] |  | SHAKABILITY [2, 8]: Yes; COLOR [3, 8]: W; ODOR [3, 8]: N.O |
|  |  |  |  |  |  | C[C@]12CC[C@@H]3c4ccc(O)cc4CC[C@H]3[C@@H]1CC[C@@H]2O [Estradiol hemihydrate] |  | effect on the physical characteristics of the resultant foam [6]: minimal effect |

| Structure (SMILES) | SHAKABILITY [2, 7] | SHAKABILITY [2, 9] | COLOR [3, 7] | ODOR [3, 7] | COLOR [3, 9] | ODOR [3, 9] | Relative Potency [1] | further results |
| --- | --- | --- | --- | --- | --- | --- | --- | --- |
| CC1(C)C(C=C(Cl)Cl)C1C(=O)OCc1cccc(Oc2ccccc2)c1 (stereo not drawn) [Permethrin BPC (cis:trans 25:75), Permethrin] | Yes | Yes | W | N.O | O.W | No |  |  |
| Cn1c(=O)c2c(ncn2C)n(C)c1=O [Caffeine] | Yes | Yes | W | N.O | W | N.O |  | SHAKABILITY [2, 8]: Yes; COLOR [3, 8]: W; ODOR [3, 8]: N.O |
